Source: publication PMC12990037, “Discovery of Two Structurally Distinct Classes of Inhibitors Targeting the Nuclease MUS81 and Enhancing Efficacy of Chemotherapy in Cancer Cells” (Journal of Medicinal Chemistry, 2026)

How the values were obtained:
MUS81 = system: MUS81; parameters: method as in PMID 37352577; conditions: FRET-based DNA cleavage assay; cited from earlier work
U2OS, HEK293, and CAL51 = experiment: Cell proliferation assay (CyQUANT), combination with cisplatin; type: cell-based; conditions: cisplatin alone, 5 days
Experimental: 7 MUS81 inhibitors synergize with cisplatin to reduce cancer cell viability. (A,B) U2OS cells were treated with DMSO, MU262, or MU876 at the indicated concentrations in combination with a range of cisplatin (0–5 μM) for 96–120 h. Cell viability was assessed by the Cy-Quant assay. The survival was normalized to the DMSO-treated control. Graphs were generated in Graphpad Prism using the nonlinear regression fitting model. n ≥ 3, error bars represent s.d. (C) CAL51 WT cells were treated with DMSO, MU262, or MU876 at the indicated concentrations at each passage over 2 weeks. Cisplatin (12 μM) was added for the last 24 h before harvest. DNA damage was assessed by quantifying γH2AX foci using fluorescence microscopy and CellProfiller software. Data were visualized plotted in R software. Red markers represent the median of γH2AX foci number per nucleus; blue markers represent the percentage of cells with ≥20 γH2AX foci per nucleus. n = 3, error bars represent s.d.; ****p <0.0001 (unpaired, two-tailed t-test). TEXT PRINTED IN THE PICTURE: (C) D: γH2AX foci: 2.4 (DMSO); γH2AX foci: 59.6 (Cisplatin) | (C) MU262: γH2AX foci: 2.3 (1 μM; DMSO); γH2AX foci: 3 (2 μM; DMSO); γH2AX foci: 55.4 (1 μM; Cisplatin); γH2AX foci: 43.2 (2 μM; Cisplatin) | (C) MU876: γH2AX foci: 2.8 (0.25 μM; DMSO); γH2AX foci: 0.9 (0.5 μM; DMSO); γH2AX foci: 48.2 (0.25 μM; Cisplatin); γH2AX foci: 42.6 (0.5 μM; Cisplatin) DOUBTS OF THE COPYIST ABOUT THIS PICTURE: Panel C: the numbers in the blue markers have no measure or unit of their own printed in the picture; the axis title 'γH2AX foci' is given as the measure, but the numbers may stand for another quantity. / Panel C: 'D' is a control column with no concentration; it may not count as a substance. / Panel C: small white print on blue markers; 59.6, 55.4, 48.2, 43.2, 42.6, 2.8 and 0.9 are best readings (3, 5, 6, 8 and 9 are hard to tell apart).
CAL51 WT, CAL51 MUS81^–/–, U2OS, and HEK293 cells were seeded in a 96-well plate and treated with the respective concentration of selected inhibitors. […]

Row | Compound | IC50 (MUS81) | cell viability (U2OS, HEK293, and CAL51)
1 | O=C(N/N=C/c1cc(O)c(O)cc1O)c1cc2ccccc2cc1O [Dyngo-4a] | 570 nM | 
2 | N.N.[Cl][Pt][Cl] [cisplatin, reference compound] |  | dose-dependent decrease of viability
